# Experimental data: patent US10039282B2, “Six-membered C—N-bonded aryl sulphide and aryl sulphoxide derivatives as pesticides” (BAYER CROPSCIENCE AKTIENGESELLSCHAFT, priority 2013, dated 2018)
# Read-outs that look alike come from different tables or passages of the source.
# Assays:
# Boophilus microplus = Boophilus microplus injection test; assay type: in vivo; conditions: 20 μg/animal, assessed after 7 days
# Description: 1. Boophilus microplus—Injection Test
# Solvent: dimethyl sulphoxide
# To produce an appropriate active compound formulation, 10 mg of active compound are mixed with 0.5 ml of solvent and the concentrate is diluted with solvent to the desired concentration.
# 1 μl of the active compound solution is injected into the abdomen of 5 engorged adult female cattle ticks (Boophilus microplus). The animals are transferred into dishes and kept in a climate-controlled room.
# The efficacy is assessed after 7 days by laying of fertile eggs. Eggs which are not visibly fertile are stored in a climate-controlled cabinet until the larvae hatch after about 42 days. An efficacy of 100% means that none of the ticks has laid any fertile eggs; 0% means that all the eggs are fertile.
# Phaedon cochleariae [1] = test: Phaedon cochleariae spray test; assay type: in vivo; conditions: 500 g/ha, after 7 days
# Description: 3. Phaedon cochleariae—Spray Test
# Solvent: 78.0 parts by weight of acetone • • 1.5 parts by weight of dimethylformamide Emulsifier: alkylaryl polyglycol ether
# (§1) To produce an appropriate active compound formulation, 1 part by weight of active compound is dissolved using the specified parts by weight of solvent and made up with water containing an emulsifier concentration of 1000 ppm until the desired concentration is attained. To produce further test concentrations, the preparation is diluted with emulsifier-containing water.
# (§2) Discs of Chinese cabbage leaves (Brassica pekinensis) are sprayed with an active compound formulation of the desired concentration and, after drying, populated with larvae of the mustard beetle (Phaedon cochleariae).
# After 7 days, the efficacy in % is determined 100% means that all the beetle larvae have been killed; 0% means that no beetle larvae have been killed.
# Phaedon cochleariae [2] = test: whole plant or invertebrate; assay type: in vivo; conditions: 168 h
# Description: 1. Phaedon cochleariae—Spray Test (PHAECO)
# (§3) Solvent: 78.0 parts by weight of acetone
# (§4) • 1.5 parts by weight of dimethylformamide Emulsifier: alkylaryl polyglycol ether
# as §1, §2
# After the desired period of time, the effect in % is determined. 100% means that all the beetle larvae have been killed; 0% means that no beetle larvae have been killed.
# Meloidogyne incognita = Meloidogyne incognita test (soil drench, gall formation after 21 days); assay type: in vivo; conditions: 8 ppm
# Description: 5. Meloidogyne incognita Test
# Solvent: 7 parts by weight of dimethylformamide
# Emulsifier: 2.5 parts by weight of alkylaryl poly glycol ether
# To produce an appropriate active compound formulation, 1 part by weight of active compound is mixed with the stated amounts of solvent and emulsifier, and the concentrate is diluted with water to the desired concentration, it being necessary to include the volume of soil which is drenched in the calculation. It should be ensured that a concentration of 20 ppm of emulsifier in the soil is not exceeded. To produce further test concentrations, water is used for dilution.
# Pots filled with soil (loamy sand) are watered with the active compound solution. An egg/larvae suspension of the southern root-knot nematode (Meloidogyne incognita) is added, lettuce seeds are scattered over the surface of the soil, and they are covered over with quartz sand. The lettuce seeds germinate and the plants develop. The galls develop on the roots.
# After 21 days, the nematicidal efficacy in % is determined by the formation of galls. 100% means that no galls have been found; 0% means that the number of galls on the treated plants corresponds to the untreated control.
# Tetranychus urticae = Tetranychus urticae spray test, OP-resistant (bean leaf discs); assay type: in vivo; conditions: 500 g/ha, after 6 days
# Description: 4. Tetranychus urticae—Spray Test, OP-Resistant
# as §3, §4
# To produce further test concentrations, the preparation is diluted with emulsifier-containing water.
# After 6 days, the efficacy in % is determined. 100% means that all the spider mites have been killed; 0% means that none of the spider mites have been killed.
# [3] = log P by reversed-phase HPLC analogously to OECD Guideline 117; assay type: physicochemical; conditions: reversed-phase C18 HPLC column
# Description: The log P values were determined analogously to OECD Guideline 117 (EC Directive 92/69/EEC) by HPLC (high-performance liquid chromatography) using reversed-phase columns (C 18), by the following methods:
# [a] The LC-MS determination in the acidic range is effected at pH 2.7 with 0.1% aqueous formic acid and acetonitrile (contains 0.1% formic acid) as eluents; linear gradient from 10% acetonitrile to 95% acetonitrile. log P^[…] is also referred to as log P(HCOOH). [b] LC-MS determination in the neutral range is effected at pH 7.8 with 0.001 molar aqueous ammonium hydrogencarbonate solution and acetonitrile as eluents; linear gradient from 10% acetonitrile to 95% acetonitrile. log P^[…] is also referred to as log P(neutral).
# Calibration is effected with solutions of a homologous series of unbranched alkan-2-ones (having 3 to 16 carbon atoms) with known log P values (log P values determined on the basis of the retention times by linear interpolation between two successive alkanones).
compound,measurement,setting,value
"Cc1cc(F)c(-n2cnc(C(F)(F)F)cc2=O)cc1[S+]([O-])CC(F)(F)F (stereo not shown) [Example 2, 3-{2-Fluoro-4-methyl-5-[(2,2,2-trifluoroethyl)sulphinyl]phenyl}-6-(trifluoromethyl)pyrimidin-4(3H)-one]",efficacy (no fertile eggs laid),Boophilus microplus,100%
same,efficacy (beetle larvae killed),Phaedon cochleariae [1],100%
same,mortality at 500 g/ha,Phaedon cochleariae [2],100%
same,nematicidal efficacy (formation of galls),Meloidogyne incognita,85%
same,efficacy (spider mites killed),Tetranychus urticae,100%
same,chromatographic logP,"[3]; acidic range, pH 2.7, 0.1% aqueous formic acid/acetonitrile, read-out: logP (HCOOH)",2.4
same,chromatographic logP,"[3]; neutral range, pH 7.8, 0.001 molar aqueous ammonium hydrogencarbonate/acetonitrile, read-out: logP (neutral)",2.38
